# Measured values published in patent publication US7105310B1, “Detection of biomolecules by sensitizer-linked substrates” (California Institute of Technology, priority 2000, dated 2006).
# Values joined by “and” are separate entries in the source; they are usually repeats but may differ in a detail not shown here. Identical values can stand only once.
# How the values were obtained:
# nNOS = details: cited from earlier work
# eNOS = details: cited from earlier work
# iNOS = details: cited from earlier work
# cytochrome P450cam [1] = target: T1, cytochrome P450cam (Pseudomonas putida, UniProt P00183); details: for rate of hydroxylation (NADH consumption): NADH/PdR/Pd/P450, 1 μM P450, 20 °C
# Description: Two cycles of acetonitrile (5 mL) addition, decanting, and rotary evaporation were performed to separate the buffer salts from the ruthenated species. The ruthenium concentration was quantified by UV-vis (ε456=14,500 M^−1 cm^−1).
# Each solution was injected three different times, with intermediary blank runs of pure acetonitrile. Relative peak intensities were determined using analysis software, which deconvolved the spectra to assign one singly charged peak to each compound. […] This information was crucial in quantifying hydroxylated product yields relative to starting material in the analysis of subsequent turnover experiments.
# The oxygen electrode was calibrated at 20° C. (linear response with [O2], 0–100% O2), and connected to a LeCroy oscilloscope interfaced to a PC using freely available LeCroy software (LeCroy, Chestnut Ridge, N.Y.). The O2 electrode (3 mm diameter with Teflon casing) was pushed through a septum, which formed an airtight seal with the mouth of a standard 1 cm pathlength cuvette. […] All UV-vis experiments were conducted with stirred samples at 20° C. […] Experiments were initiated upon addition of 200 μM NADH, and absorbance at 340 nm was measured simultaneously with O2 consumption.
# The consumption of NADH was monitored at 340 nm by UV-vis spectroscopy and O2 consumption monitored with the microelectrode. Once all of the NADH was consumed, a known amount of 3-endo-bromo-camphor was added, and the mixture was extract three times with an equal volume of methylene chloride. The organic extract was concentrated by evaporation and analyzed by GC.
# [2] = system: six heme proteins (yeast cytochrome c, horse skeletal muscle myoglobin, bovine lipase cytochrome b5, bovine liver catalase, recombinant yeast cytochrome c …); assay: Emission decay of Ru-substrate in presence of other heme proteins; details: […] Ru—C9-Ad, 50 mM sodium phosphate pH 7; monophasic = no binding
# P450cam = target: T2, P450cam (Pseudomonas putida, UniProt P00183); assay: Binding of [Ru(phen)2dppa]-adamantyl probes to P450; details: Example VI
# T2 construct: made in house; host or cells: E. coli
# T2 sequence (P00183 1-415): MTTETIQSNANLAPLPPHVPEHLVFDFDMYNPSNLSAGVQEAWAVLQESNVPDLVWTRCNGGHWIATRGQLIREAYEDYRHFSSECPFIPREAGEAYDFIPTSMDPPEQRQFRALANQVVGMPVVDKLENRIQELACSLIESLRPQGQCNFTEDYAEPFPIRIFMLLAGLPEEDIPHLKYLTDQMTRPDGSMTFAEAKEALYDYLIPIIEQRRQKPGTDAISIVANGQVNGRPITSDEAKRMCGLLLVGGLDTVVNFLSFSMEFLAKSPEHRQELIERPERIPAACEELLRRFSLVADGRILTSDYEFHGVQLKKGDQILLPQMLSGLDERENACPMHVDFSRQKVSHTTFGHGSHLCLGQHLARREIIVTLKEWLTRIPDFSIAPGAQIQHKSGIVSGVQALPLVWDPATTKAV
# Description: (§1) Electrospray mass spec. data was collected on a Finnigan LCQ quadrupole ion trap mass spectrometer.
# (§2) P450 was stored in small aliquots and thawed immediately before use. Samples were prepared in 50 mM Kphos buffer containing 100 mM KCl. P450 concentration was quantified using the heme soret absorption at 416.5 nm (115,000 M^−1 cm^−1). Samples were prepared in a custom quartz cuvette fitted with a Kontes Teflon stopcock. Oxygen was removed from the sample by completing at least 30 cycles of partial vacuum followed by an influx of argon.
# P450 [3] = target: T3, P450 (Pseudomonas putida, UniProt P00183); assay: Steady-state luminescence of Ru-dppa probes in acetonitrile, buffer and buffer with P450; details: for integrated luminescence intensity with P450 as % of value in acetonitrile: buffer in the presence of P450
# T3 construct: made in house; host or cells: E. coli
# T3 sequence (P00183 1-415): T2 sequence (P00183 1-415)
# Description: as §1, §2
# The luminescence of compounds 1–3 was examined in acetonitrile, potassium phosphate buffer, and buffer in the presence of P450 (as described above). […] The complexes 2 and 3 show modest recoveries of luminescence, with integrated intensities that are 2.6 and 5.2% of their values in acetonitrile (FIG. 49). The luminescence from 3 is approximately 20 fold greater in the presence of P450 than in buffer alone.
# cytochrome P450cam [4] = target: T4, cytochrome P450cam (Pseudomonas putida, UniProt P00183, C335A); assay: biochemical
# Description: A Hewlett Packard 8452A spectrophotometer was used to collect UV-vis data. Buffer conditions were 50 mM potassium phosphate, 100 mM potassium chloride, pH 7.4 for all protein solutions (˜5 μM P450). […] Thus, affinities were determined by the ability of these complexes to inhibit the low- to high-spin transition produced by camphor. […] The concentration of ethanol never exceeded 1% of the total volume. […] Absorbance changes were recorded at 392 and 416 nm. […] By definition, KD=Kcam/KI, where Kcam is the dissociaton constant of camphor (in the absence of Ru-substrate), and KI is the equilibrium constant between camphor- and ruthenium-bound P450, spectroscopically determined by measuring the dissociation constant of camphor at multiple Ru concentrations. Luminescence experiments measure KD directly.
# P450:Ru complex = target: T5, P450:Ru complex (Pseudomonas putida, UniProt P00183); assay: Camphor titration into stoichiometric P450:Ru—C10 (UV-vis); format: binding
# T5 construct: made in house
# T5 sequence (P00183 2-415 limits assumed): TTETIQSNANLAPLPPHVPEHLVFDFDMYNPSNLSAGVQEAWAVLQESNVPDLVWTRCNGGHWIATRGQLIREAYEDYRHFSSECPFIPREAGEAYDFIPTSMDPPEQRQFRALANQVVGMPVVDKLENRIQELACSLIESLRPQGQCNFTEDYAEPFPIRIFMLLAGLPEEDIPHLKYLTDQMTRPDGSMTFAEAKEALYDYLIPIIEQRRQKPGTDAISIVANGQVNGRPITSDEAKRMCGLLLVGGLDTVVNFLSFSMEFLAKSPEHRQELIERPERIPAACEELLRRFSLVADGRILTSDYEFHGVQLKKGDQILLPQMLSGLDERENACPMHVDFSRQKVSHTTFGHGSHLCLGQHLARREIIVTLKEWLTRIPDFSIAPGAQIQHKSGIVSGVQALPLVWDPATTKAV
# P450 [5] = target: T3, P450; details: cited from earlier work
# Asp251Asn = Asp251Asn (Pseudomonas putida, UniProt P00183, D252N); details: decreases above 15° C.; cited from earlier work
# cytochrome P450cam [6] = target: T1, cytochrome P450cam; details: cited from earlier work
# cytochrome P450cam [7] = target: T4, cytochrome P450cam; details: untethered control complexes
# NOS = details: cited from earlier work
molecule,measurement,setting,value
CC(=N)NCc1cccc(CN)c1 [1400W],type of inhibition,nNOS,"weak, reversible inhibitor"
same,type of inhibition,eNOS,"weak, reversible inhibitor"
same,type of inhibition,iNOS,irreversible inhibitor
[Ru(bpy)2(bpy-C9-Ad)]Cl2 [Ru—C9-Ad],effective product yield based on background oxidase activity,cytochrome P450cam [1],40%
same,yield of hydroxylated product based on NADH (product formation/NADH consumption),cytochrome P450cam [1],10%
same,rate of hydroxylation (NADH consumption),cytochrome P450cam [1],10±2 μmol NADH/min/μmol P450 and 8 μmol NADH/min/μmol P450
same,emission decay profile in presence of six heme proteins,[2],monophasic
Ru(phen)2dppa-adm [compound 3],Kd,P450cam,0.18 µM
same,quantum yield bound to P450,P450 [3]; based on reported quantum yield of [Ru(phen)2dppz]2+ in aerated acetonitrile,0.00038
same,integrated luminescence intensity with P450 as % of value in acetonitrile,P450 [3],5.2%
CC12CCC(CC1=O)C2(C)C (stereo not shown) [camphor],Kd,"cytochrome P450cam [4]; dissociation constant of camphor (KS, Kcam), P450 alone, no Ru-substrate, 50 mM potassium phosphate, 100 mM KCl, pH 7.4, 20 °C",3 µM and 3.1 µM
same,rate of hydroxylation (NADH consumption),cytochrome P450cam [1],~600 μmol NADH/min/μmol P450
same,Kd,P450:Ru complex,3.6 ± 0.2 µM
same,Kd,"P450 [5]; comparison value, read-out: KD of camphor (natural substrate)",~1 µM and 1.6 µM
same,"association constant for camphor (In Keq), WT P450",P450 [5]; decreases below 15° C.,~14.2
same,"association constant for camphor (In Keq), Asp251Asn",Asp251Asn,~14.2
same,coupling of hydroxylation reaction,cytochrome P450cam [6],~100%
NC(=O)CC12CC3CC(CC(C3)C1)C2 [1-adamantylacetamide],"rate of hydroxylation, literature value",cytochrome P450cam [6]; literature,~110 μmol NADH/min/μmol P450
"[Cl-].[Cl-].[Ru+2].c1ccc(-c2ccccn2)nc1.c1ccc(-c2ccccn2)nc1.c1ccc(-c2ccccn2)nc1 [[Ru(bpy)3]^2+, Tris(2,2′-bipyridine)ruthenium(II) chloride]",quenching upon addition of P450,cytochrome P450cam [7],not quenched
Ru(phen)2dppa-gly-adm [compound 2],Kd,P450cam,2.4 µM
same,integrated luminescence intensity with P450 as % of value in acetonitrile,P450 [3],2.6%
D-Phe-D-ArgNO2—OMe,dissociation constant,nNOS,micromolar
same,dissociation constant,eNOS,micromolar
same,Kd,iNOS,3600 µM
Ru(phen)2dppa-C6-Ad [compound 1],Kd,P450cam,0.25 µM
same,luminescence increase over background,P450 [3],did not show a significant increase in luminescence
"N=C(NCCC[C@H](N)C(=O)O)N[N+](=O)[O-] [NMA, N^ω-nitro-arginine]",inhibition of NOS,NOS,"good, but non-specific inhibitor"
NC(=O)CC1C2CC3CC(C2)CC1C3 (stereo not shown) [2-adamantylacetamide],spin conversion at the heme,cytochrome P450cam [4],full low to high spin conversion
same,conversion of heme to high-spin species on binding,cytochrome P450cam [4]; ferric-aquo P450,95%
same,yield of hydroxylated product based on NADH (product formation/NADH consumption),cytochrome P450cam [1],47±3%
same,rate of hydroxylation (NADH consumption),cytochrome P450cam [1],90±20 μmol NADH/min/μmol P450
